The source of these data is ChEMBL document CHEMBL1667792, “DNA-dependent protein kinase (DNA-PK) inhibitors: structure-activity relationships for O-alkoxyphenylchromen-4-one probes of the ATP-binding domain” (Bioorg Med Chem Lett, 2011).

Assay [1] addresses Phosphatidylinositol 4,5-bisphosphate 3-kinase catalytic subunit alpha isoform (Homo sapiens, UniProt P42336). Put plainly: Inhibition of PI3Kalpha after 80 mins.
For assay [2], the target named is DNA-dependent protein kinase catalytic subunit (Homo sapiens, UniProt P78527).
Assay [3] concerns HeLa. The experiment in a line: Potentiation of ionising radiation-induced DNA damaging activity in human HeLa cells assessed as dose modification ratio at 0.5 uM treated 1 hr before ionising radiation challenge followed by washout measured after 6 to 8 days by Giemsa staining. Type of assay: functional.
For assay [4], the system named is HeLa. Put plainly: Potentiation of ionising radiation-induced DNA damaging activity in human HeLa cells assessed as dose modification ratio at 0.1 uM treated 1 hr before ionising radiation challenge followed by washout measured after 6 to 8 days by Giemsa staining. Format: functional.

As a reminder, the IC50 is the concentration needed to halve the response being measured. High values mean weaker potency in that assay, low ones greater potency in that assay.

Each structure is given as a SMILES string.

Chain of DNA-dependent protein kinase catalytic subunit (P78527 whole entry): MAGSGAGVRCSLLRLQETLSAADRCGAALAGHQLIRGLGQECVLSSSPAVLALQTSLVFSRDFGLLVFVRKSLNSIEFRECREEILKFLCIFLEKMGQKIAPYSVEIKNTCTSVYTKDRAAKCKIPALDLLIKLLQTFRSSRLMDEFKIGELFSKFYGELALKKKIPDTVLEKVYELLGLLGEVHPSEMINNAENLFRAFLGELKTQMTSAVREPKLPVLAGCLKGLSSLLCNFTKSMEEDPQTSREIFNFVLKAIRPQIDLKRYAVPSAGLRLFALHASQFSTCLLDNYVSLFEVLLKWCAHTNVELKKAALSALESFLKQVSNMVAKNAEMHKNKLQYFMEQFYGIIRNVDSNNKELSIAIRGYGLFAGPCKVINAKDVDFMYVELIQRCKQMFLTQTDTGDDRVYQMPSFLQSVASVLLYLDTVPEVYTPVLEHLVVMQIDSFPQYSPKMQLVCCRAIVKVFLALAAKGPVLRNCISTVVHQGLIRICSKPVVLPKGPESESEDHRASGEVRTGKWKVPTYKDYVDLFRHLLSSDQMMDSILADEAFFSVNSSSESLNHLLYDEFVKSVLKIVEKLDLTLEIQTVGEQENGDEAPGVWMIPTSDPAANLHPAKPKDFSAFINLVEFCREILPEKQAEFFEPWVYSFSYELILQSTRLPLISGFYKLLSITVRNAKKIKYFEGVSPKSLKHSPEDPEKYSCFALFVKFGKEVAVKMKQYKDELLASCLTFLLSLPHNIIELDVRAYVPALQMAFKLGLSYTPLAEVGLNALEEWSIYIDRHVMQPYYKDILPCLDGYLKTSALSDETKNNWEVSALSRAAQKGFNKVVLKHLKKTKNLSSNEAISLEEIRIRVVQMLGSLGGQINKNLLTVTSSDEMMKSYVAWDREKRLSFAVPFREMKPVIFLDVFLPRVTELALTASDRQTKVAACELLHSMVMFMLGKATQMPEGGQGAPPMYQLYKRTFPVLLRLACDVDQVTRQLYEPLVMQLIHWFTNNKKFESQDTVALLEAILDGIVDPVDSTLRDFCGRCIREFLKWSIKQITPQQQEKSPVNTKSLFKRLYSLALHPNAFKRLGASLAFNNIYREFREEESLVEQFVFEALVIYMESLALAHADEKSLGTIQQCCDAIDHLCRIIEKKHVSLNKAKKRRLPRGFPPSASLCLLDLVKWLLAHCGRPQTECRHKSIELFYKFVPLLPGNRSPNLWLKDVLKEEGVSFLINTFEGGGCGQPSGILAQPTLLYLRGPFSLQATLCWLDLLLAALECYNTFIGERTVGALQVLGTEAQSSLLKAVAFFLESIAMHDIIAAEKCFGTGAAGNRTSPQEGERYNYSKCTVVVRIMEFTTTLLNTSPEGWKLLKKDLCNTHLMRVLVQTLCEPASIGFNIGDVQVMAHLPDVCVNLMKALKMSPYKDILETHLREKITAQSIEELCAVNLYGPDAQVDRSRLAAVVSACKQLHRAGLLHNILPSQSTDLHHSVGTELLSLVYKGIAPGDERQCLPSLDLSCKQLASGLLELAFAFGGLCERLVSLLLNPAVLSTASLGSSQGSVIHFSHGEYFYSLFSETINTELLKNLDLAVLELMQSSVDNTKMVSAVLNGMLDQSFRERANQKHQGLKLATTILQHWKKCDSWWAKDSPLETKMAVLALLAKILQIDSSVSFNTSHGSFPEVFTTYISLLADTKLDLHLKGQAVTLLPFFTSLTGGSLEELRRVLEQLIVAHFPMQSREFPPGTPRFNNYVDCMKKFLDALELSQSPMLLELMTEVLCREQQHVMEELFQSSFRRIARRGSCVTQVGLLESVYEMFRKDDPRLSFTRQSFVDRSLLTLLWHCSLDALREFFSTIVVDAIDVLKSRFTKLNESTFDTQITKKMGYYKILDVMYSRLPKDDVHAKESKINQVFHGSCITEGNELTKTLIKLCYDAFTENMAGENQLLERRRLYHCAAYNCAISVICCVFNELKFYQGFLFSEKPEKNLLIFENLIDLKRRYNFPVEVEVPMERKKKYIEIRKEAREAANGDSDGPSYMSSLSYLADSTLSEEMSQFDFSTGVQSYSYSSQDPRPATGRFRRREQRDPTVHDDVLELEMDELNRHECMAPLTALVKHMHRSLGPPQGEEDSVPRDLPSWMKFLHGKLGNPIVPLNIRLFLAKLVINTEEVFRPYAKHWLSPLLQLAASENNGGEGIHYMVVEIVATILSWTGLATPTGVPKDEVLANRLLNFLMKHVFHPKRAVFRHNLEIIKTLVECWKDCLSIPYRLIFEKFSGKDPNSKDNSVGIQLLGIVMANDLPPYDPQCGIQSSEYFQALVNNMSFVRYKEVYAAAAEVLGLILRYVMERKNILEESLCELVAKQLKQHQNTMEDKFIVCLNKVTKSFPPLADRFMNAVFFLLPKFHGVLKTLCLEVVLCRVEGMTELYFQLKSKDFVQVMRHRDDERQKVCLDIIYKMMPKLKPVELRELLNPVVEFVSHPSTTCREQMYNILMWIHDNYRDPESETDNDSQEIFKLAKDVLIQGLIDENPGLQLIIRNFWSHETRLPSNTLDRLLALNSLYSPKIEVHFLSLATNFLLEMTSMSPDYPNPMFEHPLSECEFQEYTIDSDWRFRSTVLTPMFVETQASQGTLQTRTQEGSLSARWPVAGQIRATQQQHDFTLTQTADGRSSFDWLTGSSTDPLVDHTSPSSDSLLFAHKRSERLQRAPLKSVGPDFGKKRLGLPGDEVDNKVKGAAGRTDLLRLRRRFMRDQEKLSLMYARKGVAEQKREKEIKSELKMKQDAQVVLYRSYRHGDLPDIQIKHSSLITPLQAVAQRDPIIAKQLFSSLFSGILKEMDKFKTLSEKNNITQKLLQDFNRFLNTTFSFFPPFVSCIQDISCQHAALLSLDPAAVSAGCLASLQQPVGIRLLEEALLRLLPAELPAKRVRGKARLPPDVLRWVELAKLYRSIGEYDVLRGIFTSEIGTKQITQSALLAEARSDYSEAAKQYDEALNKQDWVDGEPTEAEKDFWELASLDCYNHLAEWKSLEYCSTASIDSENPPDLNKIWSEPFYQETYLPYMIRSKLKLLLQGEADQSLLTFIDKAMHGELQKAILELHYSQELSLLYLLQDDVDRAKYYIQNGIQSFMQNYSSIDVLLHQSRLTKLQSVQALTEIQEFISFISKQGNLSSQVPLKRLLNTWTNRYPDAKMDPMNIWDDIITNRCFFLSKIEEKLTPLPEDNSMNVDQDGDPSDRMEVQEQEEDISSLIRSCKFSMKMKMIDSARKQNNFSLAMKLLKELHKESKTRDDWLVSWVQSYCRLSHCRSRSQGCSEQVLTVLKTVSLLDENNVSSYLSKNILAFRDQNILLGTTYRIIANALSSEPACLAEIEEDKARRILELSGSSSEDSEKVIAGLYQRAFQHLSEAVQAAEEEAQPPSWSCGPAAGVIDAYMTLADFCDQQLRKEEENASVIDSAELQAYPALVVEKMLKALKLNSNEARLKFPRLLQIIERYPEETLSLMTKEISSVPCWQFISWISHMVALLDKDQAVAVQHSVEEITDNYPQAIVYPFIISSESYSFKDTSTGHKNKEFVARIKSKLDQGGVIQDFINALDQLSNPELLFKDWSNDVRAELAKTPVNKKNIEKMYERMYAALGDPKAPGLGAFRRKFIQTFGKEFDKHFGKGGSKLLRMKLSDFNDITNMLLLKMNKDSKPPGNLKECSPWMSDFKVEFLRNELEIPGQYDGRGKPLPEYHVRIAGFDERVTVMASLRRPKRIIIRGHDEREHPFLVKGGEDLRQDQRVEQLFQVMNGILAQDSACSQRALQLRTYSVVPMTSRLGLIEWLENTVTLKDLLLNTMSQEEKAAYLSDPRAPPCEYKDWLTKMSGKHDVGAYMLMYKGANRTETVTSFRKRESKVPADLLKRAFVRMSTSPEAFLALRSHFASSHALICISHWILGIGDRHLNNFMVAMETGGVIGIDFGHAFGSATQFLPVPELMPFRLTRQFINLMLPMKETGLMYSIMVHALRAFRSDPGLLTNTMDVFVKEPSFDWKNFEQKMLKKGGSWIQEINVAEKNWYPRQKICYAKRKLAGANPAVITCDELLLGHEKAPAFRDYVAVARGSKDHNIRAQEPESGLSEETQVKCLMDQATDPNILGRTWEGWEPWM
Chain of Phosphatidylinositol 4,5-bisphosphate 3-kinase catalytic subunit alpha isoform (P42336 whole entry, canonical isoform): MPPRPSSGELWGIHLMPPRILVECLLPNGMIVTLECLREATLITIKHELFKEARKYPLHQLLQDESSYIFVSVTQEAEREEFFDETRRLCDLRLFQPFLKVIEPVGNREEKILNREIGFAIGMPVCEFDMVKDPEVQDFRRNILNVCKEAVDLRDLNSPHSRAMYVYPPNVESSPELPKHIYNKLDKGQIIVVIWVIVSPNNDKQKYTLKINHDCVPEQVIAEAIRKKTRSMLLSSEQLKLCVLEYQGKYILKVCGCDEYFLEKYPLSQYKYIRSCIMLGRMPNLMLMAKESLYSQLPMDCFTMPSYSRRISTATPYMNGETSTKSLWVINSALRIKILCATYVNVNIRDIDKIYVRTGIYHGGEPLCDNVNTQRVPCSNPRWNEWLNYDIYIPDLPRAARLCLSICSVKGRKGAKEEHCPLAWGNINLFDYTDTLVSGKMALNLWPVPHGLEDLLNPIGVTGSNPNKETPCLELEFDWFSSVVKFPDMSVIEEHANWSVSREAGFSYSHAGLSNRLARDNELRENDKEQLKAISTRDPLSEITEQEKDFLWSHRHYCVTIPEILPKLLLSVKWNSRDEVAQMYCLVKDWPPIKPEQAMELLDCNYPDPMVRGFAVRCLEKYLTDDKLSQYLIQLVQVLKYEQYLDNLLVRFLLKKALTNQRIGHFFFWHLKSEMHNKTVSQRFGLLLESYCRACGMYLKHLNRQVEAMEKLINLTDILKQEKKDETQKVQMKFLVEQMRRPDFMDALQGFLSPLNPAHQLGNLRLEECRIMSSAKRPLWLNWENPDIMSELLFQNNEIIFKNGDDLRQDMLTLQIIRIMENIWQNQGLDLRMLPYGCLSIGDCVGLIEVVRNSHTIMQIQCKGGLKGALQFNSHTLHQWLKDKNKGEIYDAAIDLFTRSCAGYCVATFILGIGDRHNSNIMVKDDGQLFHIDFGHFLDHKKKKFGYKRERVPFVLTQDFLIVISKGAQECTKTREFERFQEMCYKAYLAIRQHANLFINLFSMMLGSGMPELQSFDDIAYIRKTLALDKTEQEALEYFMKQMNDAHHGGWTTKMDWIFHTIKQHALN

On to `O=C(CN1CCOCC1)Nc1ccc(-c2cccc3c(=O)cc(N4CCOCC4)oc23)cc1OCC1CC1`, for which the IC50 in assay [1] amounted to 70 nM; in assay [2] it was 8 nM.

`CC1(COc2cc(-c3cccc4c(=O)cc(N5CCOCC5)oc34)ccc2NC(=O)CN2CCOCC2)COC1`: the IC50 turned out to be 300 nM in assay [1] and 690 nM in assay [2].

With `COc1cc(-c2cccc3c(=O)cc(N4CCOCC4)oc23)ccc1NC(=O)CN1CCOCC1`, the values for the IC50 in assay [1] and in assay [2] were 350 nM and 290 nM, respectively.

For `O=C(CN1CCOCC1)Nc1ccc(-c2cccc3c(=O)cc(N4CCOCC4)oc23)cc1O`, the IC50 in assay [1] was determined as 430 nM; in assay [2], 80 nM.

As for `CCOc1cc(-c2cccc3c(=O)cc(N4CCOCC4)oc23)ccc1NC(=O)CN1CCOCC1`, the IC50 is 470 nM in assay [1] and 280 nM in assay [2].

Take `CC(C)Oc1cc(-c2cccc3c(=O)cc(N4CCOCC4)oc23)ccc1NC(=O)CN1CCOCC1`: the figures for the IC50 in assay [1] and in assay [2] were 290 nM and 330 nM, respectively.

Turning to `CC(C)COc1cc(-c2cccc3c(=O)cc(N4CCOCC4)oc23)ccc1NC(=O)CN1CCOCC1`, the IC50 in assay [1] stood at 150 nM; in assay [2], 180 nM.

Consider `C=CCOc1cc(-c2cccc3c(=O)cc(N4CCOCC4)oc23)ccc1NC(=O)CN1CCOCC1`, for which the IC50 in assay [1] came to 150 nM; in assay [2], 170 nM.

Regarding `NC(=O)COc1cc(-c2cccc3c(=O)cc(N4CCOCC4)oc23)ccc1NC(=O)CN1CCOCC1`, the IC50 in assay [1] came to 1100 nM; in assay [2], 3300 nM.

In the case of `COCCOc1cc(-c2cccc3c(=O)cc(N4CCOCC4)oc23)ccc1NC(=O)CN1CCOCC1`, the IC50 in assay [1] was determined as 1500 nM; in assay [2], 2600 nM.

In the case of `O=C(CN1CCOCC1)Nc1ccc(-c2cccc3c(=O)cc(N4CCOCC4)oc23)cc1OCCN1CCCC1`, the IC50 was 4400 nM in assay [1] and greater than 10000 nM in assay [2].

Consider `O=C(CN1CCOCC1)Nc1ccc(-c2cccc3c(=O)cc(N4CCOCC4)oc23)cc1OCC1CCC1`, for which the figures for the IC50 in assay [1] and in assay [2] were 290 nM and 160 nM, respectively.

With `O=C(CN1CCOCC1)Nc1ccc(-c2cccc3c(=O)cc(N4CCOCC4)oc23)cc1OCCC1CC1`, the results for the IC50 in assay [1] and in assay [2] were 400 nM and 500 nM, respectively.

In the case of `CC1(COc2cc(-c3cccc4c(=O)cc(N5CCOCC5)oc34)ccc2NC(=O)CN2CCOCC2)CCC1`, the IC50 in assay [1] came to 270 nM; in assay [2], 110 nM.

Regarding `O=C(CN1CCOCC1)Nc1ccc(-c2cccc3c(=O)cc(N4CCOCC4)oc23)cc1OCCO`, the IC50 in assay [1] is 1600 nM; in assay [2], 1000 nM.

With `NCCOc1cc(-c2cccc3c(=O)cc(N4CCOCC4)oc23)ccc1NC(=O)CN1CCOCC1`, the IC50 in assay [1] is 3000 nM; in assay [2], 12000 nM.

As to `O=C(CN1CCOCC1)Nc1ccc(-c2cccc3c(=O)cc(N4CCOCC4)oc23)cc1-c1ccccc1`, the Ratio in the assay on HeLa [3] is 8; in the assay on HeLa [4] it was 11. For the same compound, in assay [2], the IC50 was determined as 14 nM.

In the case of `O=c1cc(N2CCOCC2)oc2c(-c3cccc4c3sc3ccccc34)cccc12`, the IC50 is 130 nM in assay [1] and 28 nM in assay [2].

`O=c1cc(N2CCOCC2)oc2c(-c3ccccc3)cccc12` [LY-294002] showed an IC50 in assay [2] of 1300 nM.
